Test results reported in ChEMBL document CHEMBL1759970, “Design, synthesis and SAR of novel ethylenediamine and phenylenediamine derivatives as factor Xa inhibitors” (Bioorg Med Chem Lett, 2011).
Values after ≈ are worked out from the molar mass of the structure shown.

What was measured:
physchem [1] = settings: buffer, pH 6.8
Description: Solubility of compound at pH 6.8

physchem [2] = settings: buffer, pH 1.2
Description: Solubility of compound at pH 1.2

solubility (physchem [1]) [µg/mL] | solubility (physchem [2]) [µg/mL] | Structure (SMILES)
< 1 | 1.1 (≈ 2.04 µM) | CCOC(=O)c1ccc(NC(=O)c2nc3c(s2)CN(C)CC3)c(NC(=O)c2cc3cc(Cl)ccc3[nH]2)c1
825 (≈ 1490 µM) | 256 (≈ 462 µM) | CC(Oc1ccc(NC(=O)c2cc3cc(Cl)ccc3[nH]2)c(NC(=O)c2nc3c(s2)CN(C)CC3)c1)C(=O)O (centres undefined)
